# In patent publication US20240059719A1, “GOLD COMPLEXES AS ANTICANCER AGENT” (King Saud University, priority 2023, published 2024):
# What was measured:
# Format in all cases: cell-based
# [1] = system: MCF-7 cells; experiment: Reactive oxygen species analysis (Muse Oxidative Stress Kit, flow cytometry); settings: 24 h
# Protocol: For the analysis of reactive oxygen species (ROS), MCF-7 cells were seeded ([…]) in a 6-well plate and allowed to grow for 24 h at 37° C. under the environment of 5% CO2 and 95% humidity. […] DMS( )served as a negative control. The final DMSO concentration in each well was less than 0.1%. After harvesting the cells, they were stained with Muse® Oxidative Stress Kit (Luminex, IL, USA) following the manufacturer's instructions. The percentage of cells with oxidative stress was measured by flow cytometry analysis.
# [2] = system: MCF-7 breast cancer cells; experiment: MTT cell viability analysis (cytotoxicity); settings: Homo sapiens, MCF7, MCF-7 cells, 24 hours treatment
# Protocol: MTT (3-(4,5-dimethylthiazol-2-yl)-2,5-diphenyltetrazolium bromide) assay was used for cell viability analysis. MCF-7 breast cancer cells were seeded in a cell culture plate (96-well) at 10^4 cells per well in 200 μl of Dulbecco's modified Eagle medium (DMEM). […] MTT solution (20 μl of 5 mg/mL) was added to each well of the micro plate, which were then incubated in a CO2 incubator at 37° C. for 3 hours. After incubation, the culture medium was removed and 100 μL of isopropanol were added to each well of the micro plate and the absorbance was recorded at 570 nm against reagent blank. The cell viability was calculated using the formula:
# Cell viability %=100*(Absorbance sample)/(Absorbance blank)
# [3] = system: MCF-7 cells; experiment: Mitochondrial membrane potential analysis (Muse MitoPotential flow cytometry); settings: 24 hours
# Protocol: Muse MitoPotential Flow Cytometry Kit (Luminex, IL, USA) was used for measuring mitochondrial membrane potential (MMP). MCF-7 cells were seeded (15000 cells per well) in a 6-wells culture plate. […] A negative control (DMSO) was run in parallel. Finally, the cells were stained with Mito Potential reagents provided in the kit, following the manufacturer's instructions, and then analyzed by flow cytometry.
# [4] = system: MCF-7 cells; experiment: Intracellular ATP analysis (colorimetric ATP assay kit); settings: 0-100 μM, 12 h
# Protocol: The intracellular ATP levels were determined after the exposure of PBTDG and erlotinib (0-100 μM) to MCF-7 cells for 12 h using a colorimetric ATP assay kit (Sigma-Aldrich, USA) according to the manufacturer instructions. The unknown concentrations of the test samples were calculated using the linear standard curve generated from the concentration of 0-12 nmole ATP. […]
SMILES,ROS generation ([1]; 1 μM) [%],ROS generation ([1]; 5 μM) [%],IC50 [2] [µM],Mitochondrial membrane depolarization ([3]; 1.0 μM) [%],Mitochondrial membrane depolarization ([3]; 5.0 μM) [%],Effect on intracellular ATP levels [4]
CNC(=O)c1cc(Oc2ccc(NC(=O)Nc3ccc(Cl)c(C(F)(F)F)c3)cc2)ccn1 [sorafenib],73.76,122.11,4.45,2.7,12.0,
C#Cc1cccc(Nc2ncnc3cc(OCCOC)c(OCCOC)cc23)c1 [erlotinib],,,,,,depleted
